Measured values taken from US8952024B2, “Herbicidal pyrimidone derivatives” (E I du Pont de Nemours and Company, priority 2009, dated 2015).

Experiments:
Format in all cases: in vivo
[1] = system: bermudagrass (Cynodon dactylon); test: Test B pre-/postemergence plant response; conditions: for Bermudagrass plant response rating (0 to 100 scale): 0 is no effect, 13 to 15 days
In short: (§1)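 Visual ratings on a 0–100 scale (100 = complete control) were made versus untreated controls 13–15 days after treatment in a greenhouse. Compounds in surfactant-containing non-phytotoxic solvent were applied preemergence to seeds in loam–sand blend or postemergence to 1- to 4-leaf plants (2–18 cm).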

kochia (Kochia scoparia) = test: Test B pre-/postemergence plant response; conditions: for Kochia plant response rating (0 to 100 scale): 0 is no effect, 13 to 15 days
In short: as §1

[2] = system: johnsongrass (Sorghum halepense); test: Test B pre-/postemergence plant response; conditions: for Johnsongrass plant response rating (0 to 100 scale): 0 is no effect, 13 to 15 days
In short: as §1

corn (Zea mays) = test: Test B pre-/postemergence plant response; conditions: for Corn plant response rating (0 to 100 scale): 62 g ai/ha, 0 is no effect, 13 to 15 days
In short: as §1

[3] = system: giant foxtail (Setaria faberii); test: Test B pre-/postemergence plant response; conditions: for Foxtail, Giant plant response rating (0 to 100 scale): 0 is no effect, 13 to 15 days
In short: as §1

soybean (Glycine max) = test: Test B pre-/postemergence plant response; conditions: for Soybean plant response rating (0 to 100 scale): postemergence, 0 is no effect, 100 is complete control, 13 to 15 days
In short: as §1

wild oat (Avena fatua) = test: Test B pre-/postemergence plant response; conditions: for Oat, Wild plant response rating (0 to 100 scale): 0 is no effect, 13 to 15 days
In short: as §1

[4] = system: blackgrass (Alopecurus myosuroides); test: Test B pre-/postemergence plant response; conditions: for Blackgrass plant response rating (0 to 100 scale): 0 is no effect, 13 to 15 days
In short: as §1

[5] = system: morningglory (Ipomoea coccinea); test: Test B pre-/postemergence plant response; conditions: for Morningglory plant response rating (0 to 100 scale): 0 is no effect, 13 to 15 days
In short: as §1

[6] = system: cocklebur (Xanthium strumarium); test: Test B pre-/postemergence plant response; conditions: for Cocklebur plant response rating (0 to 100 scale): 0 is no effect, 13 to 15 days
In short: as §1

[7] = system: windgrass (Apera spica-venti); test: Test B postemergence plant response; conditions: for Windgrass plant response rating (0 to 100 scale): 62 g ai/ha, postemergence, 0 is no effect, 100 is complete control, 13 to 15 days; for Plant response rating, Windgrass: Postemergence, 125 g ai/ha, scale 0 to 100 (0 no effect, 100 complete control)
In short: (§2)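 Plants at the 1- to 4-leaf stage (2 to 18 cm tall), grown in pots of peat moss/vermiculite medium with wetting agent and starter nutrients, received postemergence applications of test chemicals. After 13 to 15 days in a greenhouse, injury was rated visually against untreated controls on a 0 (no effect) to 100 (complete control) scale.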

[8] = system: chickweed (Stellaria media); test: Test B postemergence plant response; conditions: for Chickweed plant response rating (0 to 100 scale): 62 g ai/ha, 0 is no effect, 13 to 15 days
In short: as §2

[9] = system: winter barley (Hordeum vulgare); test: Test B postemergence plant response; conditions: for Barley plant response rating (0 to 100 scale): 62 g ai/ha, 0 is no effect, 13 to 15 days
In short: as §2

[10] = system: canarygrass (Phalaris minor); test: Test B postemergence plant response; conditions: for Canarygrass plant response rating (0 to 100 scale): 62 g ai/ha, 0 is no effect, 13 to 15 days
In short: as §2

[11] = 31 g ai/ha, postemergence, scale 0 to 100, 0 is no effect, 100 is complete control
[12] = 62 g ai/ha, postemergence, 100 is complete control
[13] = Postemergence, 125 g ai/ha, scale 0 to 100 (0 no effect, 100 complete control)
[14] = Postemergence, 250 g ai/ha, scale 0 to 100 (0 no effect, 100 complete control)
[15] = Preemergence, 31 g ai/ha, scale 0 to 100 (0 no effect, 100 complete control)
[16] = Preemergence, 62 g ai/ha, scale 0 to 100 (0 no effect, 100 complete control)
[17] = Preemergence, 125 g ai/ha, scale 0 to 100, 0 no effect, 100 complete control
[18] = Preemergence, 250 g ai/ha, 0 to 100 scale
[19] = postemergence, 100 is complete control

COCCCn1c(-c2cc(F)cc(F)c2)ncc(C(=O)C2=C(O)CCCC2=O)c1=O [Compound 120]
35: Plant response rating, Johnsongrass [2, 15] | Plant response rating, Cocklebur [6, 16]
95: Bermudagrass plant response rating (0 to 100 scale) [1, 12] | Plant response rating, Soybean (soybean (Glycine max); [13]) | Plant response rating, Oat, Wild (wild oat (Avena fatua); [14])
65: Plant response rating, Oat, Wild (wild oat (Avena fatua); [17]) | Oat, Wild plant response rating (wild oat (Avena fatua); [18])
98: Plant response rating, Bermudagrass [1, 13] | Plant response rating, Bermudagrass [1, 14] | Plant response rating, Kochia (kochia (Kochia scoparia); [14]) | Plant response rating, Foxtail, Giant [3, 14] | Plant response rating, Foxtail, Giant [3, 16] | Plant response rating, Foxtail, Giant [3, 17] | Plant response rating, Soybean (soybean (Glycine max); [14]) | Cocklebur plant response rating [6, 18]
10: Plant response rating, Kochia (kochia (Kochia scoparia); [11]) | Plant response rating, Oat, Wild (wild oat (Avena fatua); [16]) | Plant response rating, Cocklebur [6, 11]
5: Plant response rating, Blackgrass [4, 15] | Barley plant response rating (0 to 100 scale) [9, 19] | Plant response rating, Barley [9, 13] | Plant response rating, Barley [9, 14]
40: Kochia plant response rating (0 to 100 scale) (kochia (Kochia scoparia); [12])
20: Plant response rating, Kochia (kochia (Kochia scoparia); [16]) | Corn plant response rating (0 to 100 scale) (corn (Zea mays); [19])
90: Johnsongrass plant response rating [2, 18] | Plant response rating, Morningglory [5, 14] | Plant response rating, Morningglory [5, 16] | Plant response rating, Morningglory [5, 17] | Plant response rating, Windgrass [7]
25: Johnsongrass plant response rating (0 to 100 scale) [2, 12] | Plant response rating, Corn (corn (Zea mays); [17]) | Plant response rating, Cocklebur [6, 13]
100: Plant response rating, Bermudagrass [1, 15] | Plant response rating, Bermudagrass [1, 16] | Plant response rating, Bermudagrass [1, 17] | Bermudagrass plant response rating ([1]; Preemergence, 250 g ai/ha, 0 to 100 scale, 0 no effect, 100 complete control) | Foxtail, Giant plant response rating [3, 18] | Morningglory plant response rating [5, 18] | Plant response rating, Chickweed [8, 14]
50: Plant response rating, Kochia (kochia (Kochia scoparia); [17]) | Plant response rating, Corn (corn (Zea mays); [13]) | Plant response rating, Oat, Wild (wild oat (Avena fatua); [11]) | Plant response rating, Blackgrass [4, 16] | Plant response rating, Blackgrass [4, 17] | Blackgrass plant response rating [4, 18] | Morningglory plant response rating (0 to 100 scale) [5, 12]
70: Plant response rating, Johnsongrass [2, 16] | Plant response rating, Soybean (soybean (Glycine max); [16])
30: Plant response rating, Blackgrass [4, 11] | Blackgrass plant response rating (0 to 100 scale) [4, 12] | Canarygrass plant response rating (0 to 100 scale) [10, 19]
55: Corn plant response rating (corn (Zea mays); [18]) | Plant response rating, Canarygrass [10, 13] | Plant response rating, Canarygrass [10, 14]
0: Plant response rating, Kochia (kochia (Kochia scoparia); [15]) | Plant response rating, Corn (corn (Zea mays); [15]) | Plant response rating, Oat, Wild (wild oat (Avena fatua); [15]) | Plant response rating, Morningglory [5, 15] | Plant response rating, Cocklebur [6, 15] | Plant response rating, Canarygrass [10, 11]
80: Plant response rating, Bermudagrass [1, 11] | Plant response rating, Kochia (kochia (Kochia scoparia); [13]) | Plant response rating, Johnsongrass [2, 14] | Plant response rating, Johnsongrass [2, 17] | Foxtail, Giant plant response rating (0 to 100 scale) [3, 12] | Soybean plant response rating (0 to 100 scale) (soybean (Glycine max); 62 g ai/ha) | Plant response rating, Soybean (soybean (Glycine max); [17]) | Soybean plant response rating (soybean (Glycine max); [18]) | Oat, Wild plant response rating (0 to 100 scale) (wild oat (Avena fatua); [12]) | Plant response rating, Oat, Wild (wild oat (Avena fatua); [13]) | Plant response rating, Morningglory [5, 13] | Plant response rating, Cocklebur [6, 14] | Windgrass plant response rating (0 to 100 scale) [7]
85: Plant response rating, Foxtail, Giant [3, 13] | Plant response rating, Chickweed [8, 13]
15: Plant response rating, Johnsongrass [2, 11] | Plant response rating, Corn (corn (Zea mays); [11]) | Plant response rating, Soybean (soybean (Glycine max); [15]) | Plant response rating, Morningglory [5, 11] | Cocklebur plant response rating (0 to 100 scale) [6, 12]
75: Kochia plant response rating (kochia (Kochia scoparia); [18]) | Plant response rating, Johnsongrass [2, 13] | Plant response rating, Corn (corn (Zea mays); [14]) | Plant response rating, Foxtail, Giant [3, 11] | Plant response rating, Foxtail, Giant [3, 15] | Chickweed plant response rating (0 to 100 scale) [8, 19]
60: Plant response rating, Blackgrass [4, 13] | Plant response rating, Blackgrass [4, 14] | Plant response rating, Cocklebur [6, 17] | Plant response rating, Chickweed [8, 11]

CCCCn1c(-c2cc(F)cc(F)c2)ncc(C(=O)C2=C(O)CCCC2=O)c1=O [Compound 121]
55: Corn plant response rating (0 to 100 scale) (corn (Zea mays); [19]) | Plant response rating, Corn (corn (Zea mays); [13])
5: Plant response rating, Blackgrass [4, 11] | Plant response rating, Morningglory [5, 11] | Barley plant response rating (0 to 100 scale) [9, 19] | Plant response rating, Barley [9, 13] | Canarygrass plant response rating (0 to 100 scale) [10, 19] | Plant response rating, Canarygrass [10, 13]
70: Johnsongrass plant response rating (0 to 100 scale) [2, 12]
95: Plant response rating, Bermudagrass [1, 11] | Plant response rating, Kochia (kochia (Kochia scoparia); [11]) | Plant response rating, Foxtail, Giant [3, 11] | Plant response rating, Soybean (soybean (Glycine max); [13])
30: Plant response rating, Canarygrass [10, 14]
25: Plant response rating, Corn (corn (Zea mays); [11]) | Plant response rating, Morningglory [5, 13]
20: Plant response rating, Johnsongrass [2, 11] | Morningglory plant response rating (0 to 100 scale) [5, 12]
60: Plant response rating, Oat, Wild (wild oat (Avena fatua); [11]) | Plant response rating, Blackgrass [4, 14]
100: Plant response rating, Bermudagrass [1, 13] | Plant response rating, Bermudagrass [1, 14] | Kochia plant response rating (0 to 100 scale) (kochia (Kochia scoparia); [12]) | Plant response rating, Kochia (kochia (Kochia scoparia); [14]) | Plant response rating, Soybean (soybean (Glycine max); [14]) | Plant response rating, Cocklebur [6, 14] | Plant response rating, Windgrass [7] | Plant response rating, Chickweed [8, 11] | Chickweed plant response rating (0 to 100 scale) [8, 19] | Plant response rating, Chickweed [8, 13] | Plant response rating, Chickweed [8, 14]
0: Plant response rating, Barley [9, 11] | Plant response rating, Canarygrass [10, 11]
40: Blackgrass plant response rating (0 to 100 scale) [4, 12] | Plant response rating, Blackgrass [4, 13] | Plant response rating, Cocklebur [6, 11]
10: Plant response rating, Barley [9, 14]
45: Plant response rating, Morningglory [5, 14] | Cocklebur plant response rating (0 to 100 scale) [6, 12]
85: Plant response rating, Johnsongrass [2, 14] | Plant response rating, Corn (corn (Zea mays); [14]) | Plant response rating, Cocklebur [6, 13]
90: Soybean plant response rating (0 to 100 scale) (soybean (Glycine max); 62 g ai/ha) | Oat, Wild plant response rating (0 to 100 scale) (wild oat (Avena fatua); [12])
98: Bermudagrass plant response rating (0 to 100 scale) [1, 12] | Foxtail, Giant plant response rating (0 to 100 scale) [3, 12] | Plant response rating, Foxtail, Giant [3, 13] | Plant response rating, Foxtail, Giant [3, 14] | Plant response rating, Oat, Wild (wild oat (Avena fatua); [13]) | Plant response rating, Oat, Wild (wild oat (Avena fatua); [14]) | Windgrass plant response rating (0 to 100 scale) [7]
